Values of other authors as cited in patent US20100234288A1, “SUSTAINED RELEASE PHARMACEUTICAL COMPOSITION ON THE BASIS OF RELEASE SYSTEM COMPRISING AN ACID-SOLUBLE POLYMER AND A pH-DEPENDENT POLYMER” (PANACEA BIOTEC LTD, priority 2006, published 2010).

time to reach peak plasma concentrations (after oral administration): 6 to 8 h
effect of food on absorption (presence of food, gastrointestinal absorption): doubles the absorption
Compound: O=C1Cc2cc(CCN3CCN(c4nsc5ccccc45)CC3)c(Cl)cc2N1 [Ziprasidone, 5-[2-[4-(1,2-benzisothiazol-3-yl)-1-piperazinyl]ethyl]-6-chloro-1,3-dihydro-2H-indol-2-one]
